Source: patent US20210121577A1, “FILM COATED TABLET FOR THE TREATMENT OF ACUTE PAIN” (SANOFI-AVENTIS DEUTSCHLAND GMBH, priority 2014, published 2021)

Tested on: post-operative dental pain
Assay: Clinical trial in patients with post-operative dental pain (model for acute pain), randomized double-blind parallel-group
Format: in vivo
Conditions: single dose, ibuprofen 400 mg, caffeine 100 mg or fixed combination
Description: Male and female patients between the ages of 18 and 55 years, scheduled for the extraction of 3 to 4 unsound wisdom teeth, with at least 2 extracted molars were recruited; the baseline of dental pain intensity must be at least moderate on a verbal evaluation scale and at least 5 on a numerical evaluation scale ranging from 0 to 10.
The pain intensity (PI) was evaluated in a diary before administration and at 0.25, 0.5, 0.75, 1, 1.5, 2, 3, 4, 5, 6, 7 and 8 hours after the first dose of the study medication using an 11-point numerical rating scale (NPRS) from 0=“no pain” to 10=“worst possible pain”.
The pain relief (PAR) beginning from pain onset was evaluated in a patient diary using a 5-point rating scale (VRS) (0=no pain relief; 1=a little pain relief; 2=some pain relief; 3=much pain relief; 4=complete pain relief) at the same time points as for the PI evaluation.
As soon as a patient needed an emergency medication or a second dose of the medication within less than 8 hours, PI and PAR were evaluated before the emergency medication or second dose was administered.
The time-weighted sum of pain relief (PAR) and the pain intensity difference (PID) relative to baseline between 0 and 8 hours is determined as follows:
Higher values of the SPRID0-8 h likewise indicate greater benefit for the patient.

Which results are given for `CC(C)Cc1ccc(C(C)C(=O)O)cc1` (racemic) [Ibuprofen, (+/−) 2-(p-isobutylphenyl)-propionic acid]?
Median duration of action (Kaplan-Meyer analysis): 7.1 h; Adjusted Mean SPRID0-8 h value (time-weighted sum of pain relief and pain intensity difference from 0 to 8 hours) (study stage 1, primary endpoint, higher = greater benefit): 40.165; Adjusted Mean SPRID0-2 h value (time-weighted sum of PAR and PID from 0 to 2 hours) (study stage 1, secondary endpoint): 6.990
